Where a name gives a salt, the structure may show the parent alone.
What was measured:
[1] = Stability in aqueous solution (time dependent UV spectra); assay type: physicochemical; conditions: HCl salts, 28 days at 20° C., FIG. 1
Description: FIG. 1: Stability of Two NDGA Derivatives G4N and P4N(HCl salts) in Aqueous Solution. Time Dependent Changes in UV spectra showing (a) G4N is unstable and (b) meso-2,3-dimethyl-1,4-bis(3,4-[2-piperidino)ethoxyphenyl])butane (P4N) (compound 5b in Scheme 1) (day 1, 2, 8, 13, 28) is stable in Milli-Q water after 28 days at 20° C.
The new NDGA derivatives (Scheme 1) were found stable in aqueous solution; >99% of these compounds remained intact after 28 days (see FIG. 1(b)). In a sharp contrast, >96% G4N (4) decomposed in aqueous solution within 24 h (see FIG. 1(a)).

[2] = system: Vero cell (African green monkey kidney cells); experiment: MTT-based cytotoxicity / proliferation assay, Vero; assay type: cell-based; conditions: 48 hrs, 37° C.
Description: (§1) The cytotoxicity of P4N against Vero cells and human cancer cells HEP3B, HT29 and MCF7 was analyzed using an MTT [3-(4,5-dimethylthiazol-2-yl)-2,5-diphenyltetrazolium bromide]-based assay (Sigma). The absorbance of OD570 was a measurement of formazon crystals solubilized in DMSO from metabolically active cells. Procedures were discussed in Huang R C C, et al. in Antiviral Res 58, 57-64 2003.^10
(§2) We have previously shown that M4N arrests tumor cells growth at G2-M phase of the cell cycle by reducing the level of Cdc2 protein and kinase activity,^17,18 and induces apoptosis by suppressing survivin gene expression and protein stability and activating the mitochondrial apoptosis pathway.^17 M4N is able to reverse the multidrug resistance by inhibiting the Sp1-regulated MDR1 gene expression and preventing the synthesis of p-glycoprotein (Pgp).^24 To investigate the effect of water soluble NDGA derivative P4N on growth of the transformed cells, four cell lines, Vero cell (African green monkey kidney cells), human liver cancer line Hep3B, colon cancer cell line HT29, and human breast cancer line MCF-7 were selected for testing. The Vero cell line is aneuploid.

[3] = system: human liver cancer line Hep3B; experiment: MTT-based cytotoxicity / proliferation assay, Hep3B; assay type: cell-based
Description: as §1, §2

[4] = system: human breast cancer line MCF-7; experiment: MTT-based cytotoxicity / proliferation assay, MCF-7; assay type: cell-based
Description: as §1, §2

C[C@H](Cc1ccc(OCCN2CCCCC2)c(OCCN2CCCCC2)c1)[C@@H](C)Cc1ccc(OCCN2CCCCC2)c(OCCN2CCCCC2)c1 [Compound 5b, meso-2,3-Dimethyl-1,4-bis(3,4-[2-(piperidino)ethoxyphenyl])butane Tetrakishydrochloride Salt]
Stability in Milli-Q water (UV spectra) [1]: stable
Inhibition of rapidly dividing Vero cells ([2]; FIG. 11): extremely effective
Inhibition of stationary phase vero cells ([2]; FIG. 11A): much less so
IC50 ([3]; 48 hrs, 37° C.): 2 µM
Concentration that effectively eliminates growth of tumor cells ([3]; Hep3B, FIG. 11): < 5 µM
IC50 ([4]; 48 hrs, 37° C.): 1.4 µM
Concentration that effectively eliminates growth of tumor cells ([4]; MCF-7, FIG. 11): < 5 µM

Source: patent US8420692B1, “Heterocyclic and carbonate derivatives of NDGA and their use as new anti-HIV and anti-cancer agents” (The Johns Hopkins University, priority 2006, dated 2013)
